These results are taken from a melting point compilation (Tetko et al.; mined from patent text by program, amines drawn as free bases though some values may be those of a salt).

Broadly, the melting point is the temperature of the solid-liquid transition. `CN(C(CCn1c(=O)cc(C(F)(F)F)[nH]c1=O)C(=O)NO)S(=O)(=O)c1ccc(Oc2cccc(F)c2)cc1` (configuration not stated) yielded a melting point of 168 to 169 °C. Under `COC(=O)COc1ccc2cc(-c3ccc(-c4ccccc4)n3Cc3ccccc3)ccc2c1` stands 101 to 102 °C; under `CC(C)n1nc(C#Cc2ccccc2F)ccc1=O`, 84.5 to 86 °C; under `CC(C)(C)OC(=O)c1ncn2c1[C@@H]1CCCN1C(=O)c1c-2cccc1[N+](=O)[O-]`, 231 to 233 °C. Under `CS(=O)(=O)N1CCN([C@@H](CNCS(=O)(=O)c2ccc(OCc3ccccc3)cc2)C(=O)NO)CC1` stands 110 °C. Under `Cc1oc(-c2ccccc2)nc1COc1ccc(C=C2SC(=O)NC2=O)cn1` stands 225 to 226 °C; under `CCC(C)NCC(O)COc1ccc2c(=O)c(-c3ccccc3)c(-c3ccccc3)oc2c1` (configuration not stated), 139 to 140 °C. Take `CCCn1nc(C)c(NC(C)=O)c1C#N`: the melting point lay within 129 to 131 °C. In turn, `Cc1cc(N)nc(C)c1-c1ccccc1` showed a melting point of 105 to 112 °C. In the case of `CON=Cc1ncn2c1[C@@H]1CCN1C(=O)c1c(Cl)cccc1-2` it was 199 to 200 °C; in that of `COc1ccc(-c2nccn2N=Cc2ccccc2)cc1`, 155 °C; in that of `COC(=O)c1ccc2c(OC)ccnc2c1`, 147 to 148 °C. In the case of `N#Cc1ccc2[nH]cc(Cc3cccnc3)c2c1`, the melting point stood at 125 °C. In the case of `CC(C)n1nc(-c2sc(NC(=O)CN(C)CCN(C)C)nc2-c2ccccc2)ccc1=O` it was 155 to 157 °C. In the case of `COC(=O)C(Sc1ccc(C)cc1)(C1=NCCCS1)[N+](=O)[O-]` (configuration not stated) it was 85 to 89 °C; in that of `Cc1cc(Br)c(NC(=O)CBr)c(Br)n1`, 197 to 199 °C; in that of `Oc1cc(O)c(C23CC4CC(CC(C4)C2)C3)cc1C12CC3CC(CC(C3)C1)C2`, 146 °C.

In turn, `CCOc1ccc2c(c1)n(C1CCCCC1)c(=O)n2S(=O)(=O)c1ccc(C(=O)NC(C)(C)CO)cc1OC` registered a melting point of 218 °C.

`CCOC(=O)C(C#N)=CNNCC(=Cc1ccccc1)c1ccccc1` had a melting point of 129 to 133 °C.

`Cc1cccc(N(c2ccccc2)c2ccc(N(c3ccccc3)c3cccc(C)c3)cc2)c1` gave a melting point of 170 to 171 °C. In turn, `CC(=O)C=Cn1sc(Cl)cc1=O` showed a melting point of 137 to 139 °C. For the compound `CC1(C)CCC(C)(C)c2cc(Br)c(O)cc21`, the melting point was 90 to 94 °C. Compound `CNS(=O)(=O)c1cc(C(=O)O)cc(N2CCCC2)c1Oc1ccccc1` had a melting point of 245 to 248 °C. In the case of `O=C1CCCc2cc(OCc3cncnc3)ccc21` it was 146 to 147 °C; in that of `CN(C(=O)C(F)(F)F)C(C(=O)O)c1ccc(Cl)cc1` (configuration not stated), 117 to 118 °C. `O=C1N(Cc2ccncc2)Cc2cccnc2N1c1cccc([N+](=O)[O-])c1` had a melting point of 169 to 170 °C. `CCC(CC)n1nnc2cc(C)c(C)c(N)c21` registered a melting point of 114 to 117 °C.

The compound `COC(=O)c1ccc2nnc(C(=O)NCc3ccc(Cl)cc3)c(O)c2c1` came in with a melting point of 308 to 310 °C.

`Cn1c(C(F)(F)F)cc(=O)n(-c2cc(OCc3ccc(C(C)(C)C)cc3)c(Cl)cc2F)c1=O` returned a melting point of 156 to 158 °C. As to `CCCCCCCCCCCCC(C)CNc1cc(C)c([N+](=O)[O-])cc1C(N)=O` (configuration not stated), the melting point was in the range of 117 to 119 °C. On to `CC(C)Nc1nc2cc(F)c(F)c(F)c2n1[C@@H]1O[C@H](C)[C@@H](O)[C@H]1O`, for which the melting point was 175 to 178 °C. In the case of `C=CCOC(=O)Nc1c(C#N)cnn1-c1ccc(Cl)c(Cl)c1Cl` it was 154 to 155 °C; in that of `COc1cccc(NC(=O)N(C)Cc2cccc3c2CN(C2CCC(=O)NC2=O)C3=O)c1` (configuration not stated), 296 to 298 °C.

Compound `O=C(O)c1cc2c(cn1)[nH]c1ccccc12` displayed a melting point of 307 to 309 °C. The compound `CCC(COCc1ccc(C#N)cc1)n1cnc2c(N)nc3ccccc3c21` (configuration not stated) had a melting point of 160 to 161 °C. In the case of `CN(C)C1CCN(c2nc(N3CCOCC3)c3ncnc(N(CCCN)Cc4ccccc4)c3n2)CC1` it was 102 to 105 °C; in that of `CCCCCCCCCCCCCCCCCCOc1cccc(C(=O)O)c1OCCCOc1ccc(OCc2ccccc2)cc1`, 75 to 76 °C; in that of `COc1ccccc1N1CCN(CCCNC2=CC(=O)N(C)S(=O)(=O)N2C)CC1`, 137 to 139 °C. For the compound `Cc1n[nH]c(=O)c(-c2c(F)cc(F)cc2F)c1Cc1ccc(Cl)cc1`, the melting point lay in the range of 212 to 215 °C. In the case of `CC(C)N(CC(O)(Cn1cncn1)c1ccc(Cl)cc1Cl)S(C)(=O)=O` (configuration not stated), the melting point lay in the range of 132 to 133 °C. Under `Nc1ccc2ccccc2c1S` stands 108 to 110 °C; under `CN1Cc2cccnc2N(c2cccc(Cl)c2)C1=O`, 139 to 140 °C; under `Cc1ccc(-c2c3n(c(=O)c4ncccc24)CCCN(Cc2cc(C(F)(F)F)cc(C(F)(F)F)c2)C3=O)cc1`, 194 to 195 °C.

On to `CCCC(=O)c1cc2c(=O)cc(C(=O)O)[nH]c2cc1C`, for which the melting point was 255 to 258 °C. Compound `Cc1cnc(CCCCn2cnc(NC(N)=NCC(F)(F)F)n2)nc1O` showed a melting point of 235 to 237 °C.

In turn, `O=C(N1CC(CCl)c2c1ccc1ccccc21)C(F)(F)F` (configuration not stated) had a melting point of 185 °C. In the case of `Cc1c(S(=O)(=O)C[N+](=O)[O-])cc2c(c1C)OC(C)(C)CC2` it was 98.5 to 99.5 °C. Under `CCCOc1ncc2c(=O)[nH]c(-c3ccccc3OCCC)nc2n1` stands 157 to 158 °C; under `CC(C)C[C@@H](C(=O)O)N1C(=O)[C@@H](N2C(=O)OC[C@@H]2c2ccccc2)[C@H]1CCc1ccccc1`, 138 to 140 °C; under `c1c[nH]c(C(c2ccc[nH]2)C23CC4CC(C2)CC(C(c2ccc[nH]2)c2ccc[nH]2)(C4)C3)c1`, 110 to 112 °C.

Turning to `Cc1c(-c2ccc(OCc3ccccc3)cc2)n(C(=O)c2ccc(OCCN3CCCCC3)cc2)c2ccc(OCc3ccccc3)cc12`, the melting point was 48 to 51 °C.

For the compound `CNc1nc(Cc2c(Cl)cccc2Cl)nc(Nc2ccc(C#N)cc2)n1`, the melting point is 229 to 230 °C. In the case of `C=CCOc1ccc(C(=O)C=Cc2cccnc2)c(O)c1` it was 115 to 117 °C. Under `CCn1c(SCc2ccccn2)nc2ccccc2c1=O` stands 110 to 111 °C. For the compound `Cc1ccccc1N1CCc2c(C)nc3ccccc3c21`, the melting point was in the range of 148 to 150 °C. Take `CC(C)C(NC(=O)CCc1cccnc1)C(=O)NC(Cc1ccccc1)C(O)C(O)C(Cc1ccccc1)NC(=O)C(NC(=O)CCc1cccnc1)C(C)C` (configuration not stated): the melting point lay in the range of 260 to 263 °C. In the case of `Cc1ccc(O[C@@H]2CCNC[C@H]2O)cc1C` (relative stereo) it was 125 to 127 °C; in that of `Cc1cccc(N2CCN(CCCCc3ccc(C4CCC(=O)N4)cc3)CC2)c1C` (configuration not stated), 112 to 114 °C.

`CN(C)CCC(CCO)c1ccncc1` (configuration not stated) gave a melting point of 26 °C. On to `CCC(=CC(CNC(=O)c1cnccc1C(N)=O)=NO)C(C)[N+](=O)[O-]` (configuration not stated), for which the melting point was 122 to 123 °C.

In the case of `CCc1ccc2c(Cc3nc4c(F)c(F)cc(F)c4s3)cn(CC(=O)O)c2n1`, the melting point lay in the range of 155 to 157 °C. The compound `O=C1C2CCCCC2C(=O)N1CCOC(OCCN1C(=O)C2CCCCC2C1=O)(C(=O)c1ccccc1)c1ccccc1` (configuration not stated) gave a melting point of 115 to 116 °C. `O=C(O)Cc1ccc(CNC(=O)C2Cc3ccccc3N2S(=O)(=O)c2ccc(-c3cccc(Cl)c3)cc2)cc1` (configuration not stated): the melting point was 120 °C. On to `O=C(CC1NCCCC1O)Cn1cnc2cc(Br)c(Cl)cc2c1=O` (configuration not stated), for which the melting point came out at 205 °C.

The compound `O=S1(=O)N=CN(C2CC2)c2cc(I)ccc21` had a melting point of 304 to 307 °C. Take `COC(=O)c1cc(OCC=C(Cl)Cl)cc(Cl)c1OC`: the melting point was 103 °C. The compound `O=C(CCCCCCC(=O)N1CCN(CCc2ccc3ccccc3c2)CC1)NO` came in with a melting point of 118 to 120 °C. In the case of `COc1cc2c(cc1OC)NC(=O)N(CCCN(C)CCCSc1ccccc1)CC2` it was 107 to 110 °C. Under `CC(=O)Nc1cc2c(cc1Cl)CCN(C)C[C@@H]2c1ccccc1` stands 105 to 110 °C; under `COc1ccccc1C(=O)c1cccc(C(=O)O)c1`, 170 to 172 °C; under `COc1cccc(C2=C(CC(C)=NO)C(=O)NCCC2)c1`, 155 to 158 °C.

`COc1ccc(OC)c2c(Nc3ccc4cn[nH]c4c3)c(C#N)cnc12` registered a melting point of 302 to 305 °C.

In turn, `O=Cc1ccc(Cl)cc1C1(c2ccccc2F)OCCO1` returned a melting point of 103 to 105 °C. Under `CCNc1cccc2c(S(=O)(=O)Nc3ccc(Cl)nn3)cccc12` stands 166 to 168 °C; under `Cc1ccc(CCOc2ccc(CC3SC(=O)NC3=O)cc2)nc1` (configuration not stated), 192 to 193 °C; under `O=C(NC1CN2CCC1CC2)c1cccc2nc(-c3ccccc3)oc12` (configuration not stated), 179 to 180 °C. In the case of `COc1cc(OC)c2c(=O)[nH]c(-c3ccc(OCCN(C(=O)OC(C)(C)C)C(C)C)c(-c4ccc(S(C)=O)cc4)n3)nc2c1` (configuration not stated) it was 114 to 116 °C; in that of `COC(=O)c1ccc(Cl)cc1C(=O)c1ccccc1F`, 115 to 116 °C. `C=CCCCCC1CCC(CC)(CC(=O)O)c2[nH]c3c(C)cccc3c21` (configuration not stated) returned a melting point of 111 to 112 °C. In turn, `CC(C)Oc1c(C(N)=O)n(C)c2ccc(O)cc12` had a melting point of 234 to 237 °C. Under `Cc1ccc(-c2nc3cc([N+](=O)[O-])ccc3o2)s1` stands 163 to 165 °C. In the case of `O=C(O)CN1C(=O)C(=CCCCCl)SC1=S` it was 155 to 157 °C; in that of `CSc1ncnn1C[C@]1(c2ccc(F)cc2)O[C@@H]1c1cccc(Cl)c1F` (relative stereo), 88 °C. Compound `CCCn1nnn(-c2cc(Cl)c(Cl)cc2Cl)c1=O` yielded a melting point of 89 to 90 °C. Under `CN1CCC=C(c2nc(NC=O)sc2Cl)C1` stands 193 °C. Under `C=CCc1cc(COC(=O)C(C)C)ccc1C#CC1(O)CN2CCC1CC2` (configuration not stated) stands 68 °C; under `Cc1c(F)c(N2CCNCC2)c(Cl)c2c1c(=O)c(C(=O)O)cn2C1CC1`, 234 to 235 °C.
